Laboratory results: article PMC8950706, “Influence of Substitutions in the Binding Motif of Proline-Rich Antimicrobial Peptide ARV-1502 on 70S Ribosome Binding and Antimicrobial Activity” (International Journal of Molecular Sciences, 2022)
pIC50, pKi: −log10 of the molar value. ≈ marks a conversion by molar mass, not a printed value. Entries after “also recorded” stand apart in the source; their conditions may differ. Square brackets hold non-standard residues; d marks the D form. Peptide text beside a SMILES is read from it. Ac6c = NC1(C(=O)O)CCCCC1

Columns and labels:
[1] = test system: E. coli BW25113 ∆sbmA ∆mdtM; type: cell-based, Escherichia coli; conditions: for Minimal Inhibitory Concentration, 25% MHB2, ∆sbmA ∆mdtM: 25% MHB2, 37 °C; for Minimal Inhibitory Concentration, 25% MHB2, ∆sbmA ∆mdtM / Minimal Inhibitory Concentration, 33% TSB, ∆sbmA ∆mdtM: 20 h, at least duplicates on two days, * once on two days, ** duplicate on one day; for Minimal Inhibitory Concentration, 33% TSB, ∆sbmA ∆mdtM: 37 °C; for Effect of the additional mdtM knockout on antibacterial activity: ∆sbmA ∆mdtM compared with ∆sbmA
Description: (§1) MIC values were determined using a liquid broth micro dilution assay in sterile 96-well plates (polystyrene F-bottom, Greiner Bio-One GmbH) and a total volume of 100 μL per well. Aqueous peptide solutions (10 g/L) were serially twofold diluted in 25% Mueller-Hinton broth 2 (25% MBH2) or 33% tryptic soy broth (33% TSB) starting at a peptide concentration of 128 mg/L (50 μL/well). Overnight cultures of bacteria grown in 25% MHB2 (or 33% TSB) were diluted 30-fold in 25% MHB2 (or 33% TSB). After an incubation period of 4 h (37 °C, 200 rpm), cells were diluted to 1.5 × 10^7 cfu/mL, based on a McFarland test, and 50 μL were added to each well (final concentration of 7.5 × 10^6 […]). The plates were incubated (37 °C, 20 h) and the optical density was recorded at 595 nm using a microplate reader ([…]^TM, Beckmann Coulter). The MIC was defined as the lowest peptide concentration preventing visible bacterial growth.

E. coli BW25113 ∆sbmA = type: cell-based, Escherichia coli; conditions: 20 h, at least duplicates on two days, * once on two days, ** duplicate on one day; for Minimal Inhibitory Concentration, 25% MHB2, ∆sbmA: 25% MHB2, 37 °C; for Minimal Inhibitory Concentration, 33% TSB, ∆sbmA: 37 °C
Description: as §1

E. coli 70S ribosome [2] = experiment: Competitive fluorescence polarization assay against Cf-Api137 (Ki); type: binding; conditions: Supplementary Figure S3; read-out: Ki as competitor of Cf-Api137
Description: (§2) Dissociation and inhibitory constants were determined in black 384-well-plates (Greiner Bio-One GmbH, Frickenhausen, Germany) blocked with 0.5% (w/v) casein in phosphate buffered saline (PBS, 8.8 mmol/L Na2HPO4×12 H2O, 1.2 mmol/L KH2PO4, 0.3 mol/L NaCl, pH 7.4) containing 0.05% (w/v) Tween® 20 (PBST) overnight at 4 °C and washed three times with PBST.
(§3) Ribosome solution was added (10 µmol/L) and the plate was incubated after centrifugation (2 min, 500× g, Rotor S2096, Allegra^TM 21R, Beckmann Coulter) at 28 °C for 90 min. Cf-labeled peptide was added (10 µL; final concentration of 20 nmol/L; final ribosome concentration of 0.5 µmol/L) and the plate was centrifuged and incubated again (90 min, 28 °C, dark). Fluorescence polarization was recorded (λex = 485 nm, λem = 535 nm) on a […]^TM microplate reader. Kd and IC50 values were calculated by fitting the data with a variable slope parameter [y = min + (max − min)/(1 + (x/Kd) ^−Hill slope) ] using SigmaPlot 13 (Systat Software Inc., San Jose, CA, USA). The obtained IC50 values were used to calculate the Ki values.

E. coli BW25113 [3] = experiment: Checkerboard assay (FICI); type: cell-based, Escherichia coli; conditions: E. coli BW25113, 25% MHB2; synergy FICI ≤ 0.5, antagonism FICI ≥ 4; Table S6
Description: Synergy was tested in sterile 96-well plates (polystyrene F-bottom, Greiner Bio-One GmbH) using a total volume of 100 μL per well. […] Plates were incubated (37 °C, 20 h) and the optical density recorded at 595 nm using a microplate reader (Victor3, Perkin Elmer Inc., Waltham, MA, USA). The fractional inhibitory concentration index (FICI) was calculated by the equation FICI = […] = (A/MICA) + (B/MICB), where MICA/B are the MICs of an antimicrobial peptide (A) and one of the three tested antibiotics (B) alone and A and B are the MICs of combined antimicrobials. Synergy was defined as FICI ≤ 0.5, antagonism as FICI ≥ 4 and additive or indifference as FICI between 0.5 and 4.

E. coli 70S ribosome [4] = experiment: Competitive fluorescence polarization assay against Cf-Onc112 (Ki); type: binding; conditions: Supplementary Figure S3; read-out: Ki as competitor of Cf-Onc112
Description: as §2, §3

E. coli 70S ribosome [5] = experiment: Cell-free GFP expression assay (in vitro translation); type: biochemical; conditions: for In Vitro Translation (%): GFP expression remaining relative to control, concentration not given (higher concentration 50 µmol/L)
How it was run: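 PURExpress ΔRF123 cell-free translation of sfGFP (UAA stop codon, 35 ng template) with diluted RF1, peptides at 5 and 50 µmol/L final. Incubated 2 h at 37 °C; GFP fluorescence (ex 485/em 535 nm) recorded every 10 min.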

E. coli BW25113 [6] = experiment: MIC, liquid broth micro dilution, wild type; type: cell-based, Escherichia coli; conditions: for MIC (µg/mL), Table 3: BW25113, 4 h; for Minimal Inhibitory Concentration, 25% MHB2, wt / Minimal Inhibitory Concentration, 33% TSB, wt: BW25113, 20 h
How it was run: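 Twofold peptide dilutions from 128 mg/L were made in 25% MHB2 or 33% TSB, with 4 h subcultured bacteria added to […]. After 20 h at 37 °C, OD595 was read; MIC is the lowest peptide concentration preventing visible growth.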

| Structure (SMILES) | Minimal Inhibitory Concentration, 25% MHB2, ∆sbmA ∆mdtM [1] [µg/mL] | Minimal Inhibitory Concentration, 33% TSB, ∆sbmA ∆mdtM [1] [µg/mL] | Effect of the additional mdtM knockout on antibacterial activity [1] | Minimal Inhibitory Concentration, 25% MHB2, ∆sbmA (E. coli BW25113 ∆sbmA) [µg/mL] | Minimal Inhibitory Concentration, 33% TSB, ∆sbmA (E. coli BW25113 ∆sbmA) [µg/mL] | pKi (E. coli 70S ribosome [2]) | Checkerboard assay (FICI), peptide combined with chloramphenicol (E. coli BW25113 [3]) | pKi (E. coli 70S ribosome [4]) | In Vitro Translation (%) (E. coli 70S ribosome [5]) | Reduction of GFP expression, 50 µmol/L peptide (E. coli 70S ribosome [5]; cell-free expression, peptide-to-ribosome ratio of 25, GFP fluorescence, 37 °C) | MIC (µg/mL), Table 3 (E. coli BW25113 [6]) [µg/mL] | Minimal Inhibitory Concentration, 25% MHB2, wt (E. coli BW25113 [6]) [µg/mL] | Minimal Inhibitory Concentration, 33% TSB, wt (E. coli BW25113 [6]) [µg/mL] | pIC50 (E. coli 70S ribosome [5]; in vitro translation, Supplementary Figure S2, reference 4 is also given at the place, read-out: IC50 of inhibition of GFP expression) | Reduction of GFP fluorescence intensity, 10-fold lower concentration (5 µmol/L peptide) (E. coli 70S ribosome [5]; cell-free expression, 2.5-fold peptide excess, 37 °C) [%] |
| --- | --- | --- | --- | --- | --- | --- | --- | --- | --- | --- | --- | --- | --- | --- | --- |
| CC(C)C[C@H](NC(=O)[C@H](Cc1ccc(O)cc1)NC(=O)[C@@H]1CCCN1C(=O)[C@H](CCCNC(=N)N)NC(=O)[C@@H]1CCCN1C(=O)[C@H](CCCCN)NC(=O)[C@H](CC(=O)O)NC(=O)[C@@H]1CCCN1C(=O)[C@H](CCCNC(=N)N)NC(=O)C1(N)CCCCC1)C(=O)N1CCC[C@H]1C(=O)N[C@@H](CCCNC(=N)N)C(=O)N1CCC[C@H]1C(=O)N[C@@H](CCCNC(=N)N)C(=O)N1CCC[C@H]1C(=O)N1CCC[C@H]1C(=O)N[C@@H](CCCNC(=N)N)C(=O)N1CCC[C@H]1C(=O)N[C@H](C(=O)N[C@@H](CCCNC(=N)N)C(N)=O)C(C)C [ARV-1502] (H-[Ac6c]RPDKPRPYLPRPRPPRPVR-NH2) | 64 | 128 | further decreased | 16 to 32 | 64 | 5.50 | did not indicate synergistic or antagonistic effects | 6.92 | 105.8 ± 0.9 | no significant effects; also recorded: not at all | 8 (≈ 3.23 µM) | 8 | 16 | – | – |
| CC[C@H](C)[C@H](NC(=O)[C@@H](CCCNC(=N)N)NC(=O)[C@H](CCCNC(=N)N)NC(=O)[C@@H]1CCCN1C(=O)[C@@H]1CCCN1C(=O)[C@H](CCCNC(=N)N)NC(=O)[C@@H]1CCCN1C(=O)[C@H](CCCNC(=N)N)NC(=O)[C@@H]1CCCN1C(=O)[C@H](CC(C)C)NC(=O)[C@H](Cc1ccc(O)cc1)NC(=O)[C@@H]1CCCN1C(=O)[C@@H]1CCCN1C(=O)[C@H](CCCCN)NC(=O)[C@H](CC(=O)O)NC(=O)[C@@H](N)C(C)C)C(=O)N[C@@H](Cc1ccc(O)cc1)C(=O)N[C@@H](CC(N)=O)C(=O)N[C@H](CCCNC(=N)N)C(N)=O [Onc112, reference compound] (H-VDKPPYLPRPRPPR[dR]IYN[dR]-NH2; N-terminus and C-terminus assumed) | 64 | 128 | weakened the activity | 16 to 32 | 64 | – | – | – | 4.9 ± 0.3 | – | 8 (≈ 3.35 µM) | 8 | 16 | 6.82 | – |
| CC(C)C[C@H](NC(=O)[C@H](Cc1ccc(O)cc1)NC(=O)[C@@H]1CCCN1C(=O)[C@H](CCCNC(=N)N)NC(=O)[C@@H]1CCCN1C(=O)[C@H](CCCCN)NC(=O)[C@H](CCCCN)NC(=O)[C@@H]1CCCN1C(=O)[C@H](CCCNC(=N)N)NC(=O)C1(N)CCCCC1)C(=O)N1CCC[C@H]1C(=O)N[C@@H](CCCNC(=N)N)C(=O)N1CCC[C@H]1C(=O)N[C@@H](CCCNC(=N)N)C(=O)N1CCC[C@H]1C(=O)N1CCC[C@H]1C(=O)N[C@@H](CCCNC(=N)N)C(=O)N1CCC[C@H]1C(=O)N[C@H](C(=O)N[C@@H](CCCNC(=N)N)C(N)=O)C(C)C [Peptide 2] (H-[Ac6c]RPKKPRPYLPRPRPPRPVR-NH2; N-terminus and C-terminus assumed) | – | – | no effect | – | – | – | Slightly higher FICIs | – | 53.2 ± 8.2 | – | 4 (≈ 1.61 µM) | 4 | 32 to 64 | – | 22 |
